The target in one assay is HDAC6 (Homo sapiens (Human), UniProt Q9UBN7). The assay can be described thus: HDAC enzyme assay, HDAC6.
Another assay addresses HDAC3 (Homo sapiens (Human), UniProt O15379). The assay can be described thus: HDAC enzyme assay, HDAC3. It counts as biochemical.
Another assay has as its system refractory relapsed MM. The following applies: 202 patients with refractory relapsed MM; cited from earlier work.

The text below walks through data of US8609678B2, “Reverse amide compounds as protein deacetylase inhibitors and methods of use thereof” (Acetylon Pharmaceuticals, priority 2010, dated 2013).

Read-outs that look alike come from different tables or passages of the source. Bounds are passed on as bounds.

HDAC3, sequence (O15379 whole entry): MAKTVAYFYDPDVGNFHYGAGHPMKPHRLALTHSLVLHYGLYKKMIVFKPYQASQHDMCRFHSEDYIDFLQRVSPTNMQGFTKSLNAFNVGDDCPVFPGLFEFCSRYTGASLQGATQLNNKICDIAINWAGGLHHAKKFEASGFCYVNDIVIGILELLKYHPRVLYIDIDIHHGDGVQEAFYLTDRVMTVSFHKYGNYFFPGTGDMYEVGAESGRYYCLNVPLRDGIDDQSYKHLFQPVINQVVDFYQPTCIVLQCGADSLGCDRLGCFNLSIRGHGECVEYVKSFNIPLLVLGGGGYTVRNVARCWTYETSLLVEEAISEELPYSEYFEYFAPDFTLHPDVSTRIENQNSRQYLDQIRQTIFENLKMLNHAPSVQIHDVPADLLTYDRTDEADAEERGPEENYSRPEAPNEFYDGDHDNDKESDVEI
HDAC3, sequence (Q9Y618 395-489 partner): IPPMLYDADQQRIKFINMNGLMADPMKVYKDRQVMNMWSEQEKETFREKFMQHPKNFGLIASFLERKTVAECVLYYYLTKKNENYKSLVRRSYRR
HDAC6, sequence (Q9UBN7 whole entry): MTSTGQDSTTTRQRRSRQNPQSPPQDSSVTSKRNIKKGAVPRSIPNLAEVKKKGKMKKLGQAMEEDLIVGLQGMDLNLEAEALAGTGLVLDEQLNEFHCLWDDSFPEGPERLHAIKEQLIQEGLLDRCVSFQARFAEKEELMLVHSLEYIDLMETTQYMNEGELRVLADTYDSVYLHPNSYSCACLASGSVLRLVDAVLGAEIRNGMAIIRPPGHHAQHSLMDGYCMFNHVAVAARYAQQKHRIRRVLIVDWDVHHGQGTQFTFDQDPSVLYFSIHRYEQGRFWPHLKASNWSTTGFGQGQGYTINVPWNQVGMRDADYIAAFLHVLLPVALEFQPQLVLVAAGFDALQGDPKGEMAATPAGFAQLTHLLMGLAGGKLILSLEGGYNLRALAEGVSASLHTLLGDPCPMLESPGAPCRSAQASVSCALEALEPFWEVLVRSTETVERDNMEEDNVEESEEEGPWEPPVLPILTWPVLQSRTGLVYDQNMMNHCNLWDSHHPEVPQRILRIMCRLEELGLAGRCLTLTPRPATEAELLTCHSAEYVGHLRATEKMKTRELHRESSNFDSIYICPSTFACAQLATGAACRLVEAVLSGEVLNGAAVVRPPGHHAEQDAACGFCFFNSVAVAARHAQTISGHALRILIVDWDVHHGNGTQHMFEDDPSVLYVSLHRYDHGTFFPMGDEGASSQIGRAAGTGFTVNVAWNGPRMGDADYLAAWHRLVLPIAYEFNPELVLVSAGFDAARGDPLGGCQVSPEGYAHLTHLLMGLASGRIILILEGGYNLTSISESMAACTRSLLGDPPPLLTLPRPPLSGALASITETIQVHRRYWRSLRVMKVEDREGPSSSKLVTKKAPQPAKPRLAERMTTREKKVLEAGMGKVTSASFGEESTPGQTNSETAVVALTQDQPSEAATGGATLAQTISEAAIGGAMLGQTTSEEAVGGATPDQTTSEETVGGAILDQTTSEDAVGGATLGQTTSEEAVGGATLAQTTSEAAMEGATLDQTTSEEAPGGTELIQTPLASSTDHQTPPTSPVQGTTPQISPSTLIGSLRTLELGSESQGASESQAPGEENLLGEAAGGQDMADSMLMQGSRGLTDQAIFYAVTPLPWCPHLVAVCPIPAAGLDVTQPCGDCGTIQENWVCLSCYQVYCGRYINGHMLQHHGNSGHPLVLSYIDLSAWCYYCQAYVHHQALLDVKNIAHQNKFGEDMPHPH
Experimental for HDAC3: (§1) Compounds for testing were diluted in DMSO to 50 fold the final concentration and a ten point three fold dilution series was made. The compounds were diluted in assay buffer (50 mM HEPES, pH 7.4, 100 mM KCl, 0.001% Tween-20, 0.05% BSA, 20 μM TCEP) to 6 fold their final concentration. […] The tripeptide substrate and trypsin at 0.05 μM final concentration were diluted in assay buffer at 6 fold their final concentration. The final enzyme concentrations used in these assays were 3.3 ng/ml (HDAC1), 0.2 ng/ml (HDAC2), 0.08 ng/ml (HDAC3) and 2 ng/ml (HDAC6). […] Five μl compounds and 20 μl of enzyme were added to wells of a black, opaque 384 well plate in duplicate. Enzyme and compound were incubated together at room temperature for 10 minutes. […] The development of fluorescence was monitored for 60 min and the linear rate of the reaction was calculated. The IC50 was determined using Graph Pad Prism by a four parameter curve fit.
Experimental for HDAC6: as §1

As for `COC(c1ccccc1)(c1ccccc1)c1ccc(C(=O)NCCCCCCC(=O)NO)cc1` [N-(7-(hydroxyamino)-7-oxoheptyl)-4-(methoxydiphenylmethyl)benzamide], the half-inhibitory concentration (IC50) was found to be 0.007 µM against HDAC6 and 243 nM on HDAC3 (0.08 ng/ml enzyme, 17 μM tripeptide substrate, read-out: IC50(nM) HDAC3).

With `CC(C)C[C@H](NC(=O)[C@H](Cc1ccccc1)NC(=O)c1cnccn1)B(O)O` [bortezomib], in the assay on refractory relapsed MM, the “complete and near complete responses” value is recorded as 10%; the “patients did not respond” value is recorded as 65%; the responses is on record as 35%.

Regarding `NC(=O)CCCCCCNC(=O)c1cnc(N(c2ccccc2)c2ccccc2)nc1` [N-(7-amino-7-oxoheptyl)-2-(diphenylamino)pyrimidine-5-carboxamide], the IC50 on HDAC6 (read-out: IC50 HDAC6, μM) was > 50 µM; on HDAC3 (μM, read-out: IC50 HDAC3), > 50000 nM.

For orientation: IC50 means the concentration needed to halve the response being measured.
